# Square brackets hold non-standard residues; d marks the D form. Peptide text beside a SMILES is read from it. * marks the point of attachment. Phe(4-Cl) = N[C@@H](Cc1ccc(Cl)cc1)C(=O)O; Pro(4S-NH2) = N[C@@H]1CN[C@H](C(=O)O)C1; Phe(3-F) = N[C@@H](Cc1cccc(F)c1)C(=O)O; Phe(2-F) = N[C@@H](Cc1ccccc1F)C(=O)O; Arg(Me) = CNC(=N)NCCC[C@H](N)C(=O)O; His(π-Me) = Cn1cncc1C[C@H](N)C(=O)O; Hyp = O=C(O)[C@@H]1C[C@@H](O)CN1; dNMeF = CN[C@H](Cc1ccccc1)C(=O)O; Orn = NCCC[C@H](N)C(=O)O; Aib = CC(C)(N)C(=O)O; Glycolyl = O=C(CO)*; Bn = c1ccc(C*)cc1; azaGly = NNC(=O)O
# Biological target: T1, hOT7T175 (Homo sapiens, UniProt Q969F8)
# T1 construct: expressed in transfected cells
# Assay: Assay for intracellular Ca ion level-increasing activity using FLIPR
# Assay type: cell-based
# Settings: hOT7T175/CHO cells, relative to Metastin (1-54)
# In short: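 CHO/dhfr− cells stably transfected with hOT7T175, selected for high metastin response, loaded with Fluo3-AM for 1 h at 37 °C in HANKS/HBSS (pH 7.4) with probenecid. Peptides were diluted from 1×10^−3 M DMSO stock into HANKS/HBSS with 2.5 mM probenecid, 0.2% BSA, 0.1% CHAPS; intracellular Ca rise read by FLIPR.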
# T1 sequence (Q969F8 whole entry L364H): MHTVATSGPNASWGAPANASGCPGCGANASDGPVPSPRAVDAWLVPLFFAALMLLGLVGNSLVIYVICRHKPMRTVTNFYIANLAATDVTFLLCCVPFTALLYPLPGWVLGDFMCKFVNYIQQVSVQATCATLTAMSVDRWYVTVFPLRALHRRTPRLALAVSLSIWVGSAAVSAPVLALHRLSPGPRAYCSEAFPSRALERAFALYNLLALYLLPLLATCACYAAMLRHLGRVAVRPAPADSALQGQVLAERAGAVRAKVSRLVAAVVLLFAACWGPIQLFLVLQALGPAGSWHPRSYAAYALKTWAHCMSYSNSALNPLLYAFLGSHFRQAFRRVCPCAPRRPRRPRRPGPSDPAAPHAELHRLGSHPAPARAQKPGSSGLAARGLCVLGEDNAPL
row,Specific Activity: intracellular Ca ion level-increasing activity [specific activity to Metastin (1-54)],SMILES
1,1.5,"CNC(=N)NCCC[C@H](NC(=O)[C@H](CC(C)C)NC(=O)NNC(=O)[C@H](Cc1ccc(Cl)cc1)NC(=O)[C@@H](NC(=O)[C@H](CC(N)=O)NC(=O)CNC(=O)[C@@H](Cc1ccc(O)cc1)NC(C)=O)[C@@H](C)O)C(=O)N[C@@H](Cc1c[nH]c2ccccc12)C(N)=O [Compound No. 769, Ac-D-Tyr-Gly-Asn-Thr-Phe(4Cl)-AzaGly-Leu-Arg(Me)-Trp-NH2] (Ac-[dY]GNT[Phe(4-Cl)][azaGly]L[Arg(Me)]W-NH2)"
2,2.6,"CNC(=N)NCCC[C@H](NC(=O)[C@H](CC(C)C)NC(=O)NNC(=O)[C@H](Cc1ccc(Cl)cc1)NC(=O)[C@@H](NC(=O)[C@H](CC(N)=O)NC(=O)C(C)(C)NC(=O)[C@@H](Cc1ccc(O)cc1)NC(C)=O)[C@@H](C)O)C(=O)N[C@@H](Cc1c[nH]c2ccccc12)C(N)=O [Compound No. 770, Ac-D-Tyr-Aib-Asn-Thr-Phe(4Cl)-AzaGly-Leu-Arg(Me)-Trp-NH2] (Ac-[dY][Aib]NT[Phe(4-Cl)][azaGly]L[Arg(Me)]W-NH2)"
3,1.9,"CNC(=N)NCCC[C@H](NC(=O)[C@H](CC(C)C)NC(=O)NNC(=O)[C@H](Cc1ccccc1)NC(=O)[C@@H](NC(=O)[C@H](CC(N)=O)NC(=O)[C@H](CCCN)NC(=O)[C@@H](Cc1ccc(O)cc1)NC(C)=O)[C@@H](C)O)C(=O)N[C@@H](Cc1c[nH]c2ccccc12)C(N)=O [Compound No. 771, Ac-D-Tyr-Orn-Asn-Thr-Phe-AzaGly-Leu-Arg(Me)-Trp-NH2] (Ac-[dY][Orn]NTF[azaGly]L[Arg(Me)]W-NH2)"
4,1.3,"CNC(=N)NCCC[C@H](NC(=O)[C@H](CC(C)C)NC(=O)NNC(=O)[C@H](Cc1ccccc1)NC(=O)[C@@H](NC(=O)[C@H](CC(N)=O)NC(=O)[C@@H](NC(=O)[C@@H](Cc1ccc(O)cc1)NC(C)=O)[C@@H](C)O)[C@@H](C)O)C(=O)N[C@@H](Cc1c[nH]c2ccccc12)C(N)=O [Compound No. 772, Ac-D-Tyr-Thr-Asn-Thr-Phe-AzaGly-Leu-Arg(Me)-Trp-NH2] (Ac-[dY]TNTF[azaGly]L[Arg(Me)]W-NH2)"
5,1.1,"CNC(=N)NCCC[C@H](NC(=O)[C@H](CC(C)C)NC(=O)NNC(=O)[C@H](Cc1ccccc1)NC(=O)[C@@H](NC(=O)[C@H](CC(N)=O)NC(=O)[C@H](Cc1cncn1C)NC(=O)[C@@H](Cc1ccc(O)cc1)NC(C)=O)[C@@H](C)O)C(=O)N[C@@H](Cc1c[nH]c2ccccc12)C(N)=O [Compound No. 773, Ac-D-Tyr-His(3Me)-Asn-Thr-Phe-AzaGly-Leu-Arg(Me)-Trp-NH2] (Ac-[dY][His(π-Me)]NTF[azaGly]L[Arg(Me)]W-NH2)"
6,1.5,"CNC(=N)NCCC[C@H](NC(=O)[C@H](CC(C)C)NC(=O)NNC(=O)[C@H](Cc1ccccc1)NC(=O)[C@@H](NC(=O)[C@H](CC(N)=O)NC(=O)[C@@H]1C[C@@H](O)CN1C(=O)[C@@H](Cc1ccc(O)cc1)NC(=O)CO)[C@@H](C)O)C(=O)N[C@@H](Cc1c[nH]c2ccccc12)C(N)=O [Compound No. 776, Glycoloyl-D-Tyr-Hyp-Asn-Thr-Phe-AzaGly-Leu-Arg(Me)-Trp-NH2] (Glycolyl-[dY][Hyp]NTF[azaGly]L[Arg(Me)]W-NH2)"
7,1.8,"CNC(=N)NCCC[C@H](NC(=O)[C@H](CC(C)C)NC(=O)NNC(=O)[C@H](Cc1ccccc1)NC(=O)[C@@H](NC(=O)[C@H](CC(N)=O)NC(=O)[C@@H](Cc1ccc(O)cc1)NC(C)=O)[C@@H](C)O)C(=O)N[C@@H](Cc1c[nH]c2ccccc12)C(N)=O [Compound No. 777, Ac-D-Tyr-Asn-Thr-Phe-AzaGly-Leu-Arg(Me)-Trp-NH2] (Ac-[dY]NTF[azaGly]L[Arg(Me)]W-NH2)"
8,2.1,"CNC(=N)NCCC[C@H](NC(=O)[C@H](CC(C)C)NC(=O)NNC(=O)[C@H](Cc1ccccc1)NC(=O)[C@@H](NC(=O)[C@H](CC(N)=O)NC(=O)[C@@H]1C[C@H](N)CN1C(=O)[C@@H](Cc1ccc(O)cc1)NC(C)=O)[C@@H](C)O)C(=O)N[C@@H](Cc1c[nH]c2ccccc12)C(N)=O [Compound No. 780, Ac-D-Tyr-Pro(4NH2)-Asn-Thr-Phe-AzaGly-Leu-Arg(Me)-Trp-NH2] (Ac-[dY][Pro(4S-NH2)]NTF[azaGly]L[Arg(Me)]W-NH2)"
9,1.0,"CNC(=N)NCCC[C@H](NC(=O)[C@H](CC(C)C)NC(=O)NNC(=O)[C@H](Cc1ccccc1)NC(=O)[C@@H](NC(=O)[C@H](CC(N)=O)NC(=O)[C@@H]1C[C@@H](OCc2ccccc2)CN1C(=O)[C@@H](Cc1ccc(O)cc1)NC(C)=O)[C@@H](C)O)C(=O)N[C@@H](Cc1c[nH]c2ccccc12)C(N)=O [Compound No. 781, Ac-D-Tyr-Hyp(Bzl)-Asn-Thr-Phe-AzaGly-Leu-Arg(Me)-Trp-NH2] (Ac-[dY][Hyp](Bn)NTF[azaGly]L[Arg(Me)]W-NH2)"
10,1.8,"CNC(=N)NCCC[C@H](NC(=O)[C@H](CC(C)C)NC(=O)NNC(=O)[C@H](Cc1ccccc1)NC(=O)[C@@H](NC(=O)[C@H](CC(N)=O)NC(=O)[C@@H](Cc1ccccc1)N(C)C(=O)[C@@H](Cc1ccc(O)cc1)NC(C)=O)[C@@H](C)O)C(=O)N[C@@H](Cc1c[nH]c2ccccc12)C(N)=O [Compound No. 782, Ac-D-Tyr-D-NMePhe-Asn-Thr-Phe-AzaGly-Leu-Arg(Me)-Trp-NH2] (Ac-[dY][dNMeF]NTF[azaGly]L[Arg(Me)]W-NH2)"
11,8.8,"CNC(=N)NCCC[C@H](NC(=O)[C@H](CC(C)C)NC(=O)NNC(=O)[C@H](Cc1ccccc1F)NC(=O)[C@@H](NC(=O)[C@H](CC(N)=O)NC(=O)CNC(=O)[C@@H](Cc1ccc(O)cc1)NC(C)=O)[C@@H](C)O)C(=O)N[C@@H](Cc1c[nH]c2ccccc12)C(N)=O [Compound No. 783, Ac-D-Tyr-Gly-Asn-Thr-Phe(2F)-AzaGly-Leu-Arg(Me)-Trp-NH2] (Ac-[dY]GNT[Phe(2-F)][azaGly]L[Arg(Me)]W-NH2)"
12,3.4,"CNC(=N)NCCC[C@H](NC(=O)[C@H](CC(C)C)NC(=O)NNC(=O)[C@H](Cc1ccccc1F)NC(=O)[C@@H](NC(=O)[C@H](CC(N)=O)NC(=O)C(C)(C)NC(=O)[C@@H](Cc1ccc(O)cc1)NC(C)=O)[C@@H](C)O)C(=O)N[C@@H](Cc1c[nH]c2ccccc12)C(N)=O [Compound No. 784, Ac-D-Tyr-Aib-Asn-Thr-Phe(2F)-AzaGly-Leu-Arg(Me)-Trp-NH2] (Ac-[dY][Aib]NT[Phe(2-F)][azaGly]L[Arg(Me)]W-NH2)"
13,3.2,"CNC(=N)NCCC[C@H](NC(=O)[C@H](CC(C)C)NC(=O)NNC(=O)[C@H](Cc1cccc(F)c1)NC(=O)[C@@H](NC(=O)[C@H](CC(N)=O)NC(=O)CNC(=O)[C@@H](Cc1ccc(O)cc1)NC(C)=O)[C@@H](C)O)C(=O)N[C@@H](Cc1c[nH]c2ccccc12)C(N)=O [Compound No. 785, Ac-D-Tyr-Gly-Asn-Thr-Phe(3F)-AzaGly-Leu-Arg(Me)-Trp-NH2] (Ac-[dY]GNT[Phe(3-F)][azaGly]L[Arg(Me)]W-NH2)"
